From patent publication EP1676575A2, “MUCIN PRODUCTION INHIBITOR” (TAIHO PHARMACEUTICAL COMPANY LIMITED, priority 2003, dated 2005)

How the values were obtained:
[1] = tested on: NCI-H292 cells; assay: Mucin production inhibitory action (EGF-stimulated NCI-H292 cells, mucin in culture supernatant by ELISA); assay type: cell-based, human; settings: for inhibition at 1 µM / inhibition at 3 µM / inhibition at 10 µM: Homo sapiens, EGF 25 ng/mL, 48 hours, NCI-H292 cells, read-out: Percent inhibition of mucin production (%); for inhibition at 1 µM: Concentration 1 µM; for inhibition at 3 µM: Concentration 3 µM; for inhibition at 10 µM: Concentration 10 µM; for production of mucin (effect in words): summary of Table 1, EGF-stimulated NCI-H292 cells
Experimental: The test was carried out in accordance with a partially modified method of Takeyama et al. (Proc. Natl. Acad. Sci. USA, Vol. 96, P. 3081-3086, 1999). The specific procedure will be described as follows. NCI-H292 cells, which are human respiratory tract epithelial cell lines, were suspended in a 10%FCS-containing RPMI 1640 culture medium, and disseminated to a 12-well culture plate so that the cell concentration of each well was adjusted to 2 x 10^5 cell/well, followed by culturing for two days. Subsequently, the culture medium was changed to a 0.2%FCS-containing RPMI culture medium, followed by culturing for another two days. The thus-cultured cells were employed in the test. Each test drug and EGF (25 ng/mL) were added to each well, and the mucin level of the supernatant of the culture 48 hours after initiation of culturing was determined through the ELISA method. Percent inhibition (%) with regard to control value was calculated by supposing the difference produced by subtracting normal value from control value to be 100%. In this case, the control value is defined as the mucin amount in the culture supernatant to which only EGF was added, while the normal value is defined as the muchin amount in the culture supernatant containing neither of test drug and EGF. In addition, cilomilast (J. Pharmacol. Exp. Ther., Vol. 284, p. 420-426, 1998) and roflumilast (J. Pharmacol. Exp. Ther., Vol. 297, p. 267-279, 2001), which are typical phosphodiesterase (IV) inhibitors were also tested in a similar manner.

[2] = tested on: goblet cells in the respiratory tract epithelium; assay: Inhibitory effect on hyperplasia of goblet cells in the respiratory tract epithelium (Sephadex-induced, PAS staining); assay type: in vivo, Lewis Wistar rats; settings: Fig. 1; oral, once per day for seven days; Sephadex-treated rats; numbers only in the figure
Experimental: The test was carried out in accordance with a partially modified method of Matsubara et al. (Int. Arch. Allergy Immunol., Vol. 116, p. 67-75, 1998). The specific procedure will be described as follows. To each of the 7-week old male Lewis Wistar rats, a Sephadex suspension (0.1 mg/mL/head) was intravenously administered (total three times: day 0, 2, and 5). Two days after the final administration, the rat was slaughtered by exsanguination under anesthetic with pentobarbital. The lung tissue was extirpated from the rat and immersed in a neutral formalin buffer for fixation. […] The ratio of the PAS-stained positive area to the respiratory tract epithelium was calculated by use of an image analysis software (Winroof). Each test compound was suspended in 0.5% hydroxypropylmethyl cellulose (HPMC), and the suspension was orally administered once per day for continuous seven days from the start of administration of Sephadex. In the Figure, numerical data are represented by mean value ± standard deviation (each group: 11-12 samples).

[3] = tested on: Brown Norway rats; assay: Inhibitory effect on hyper-secretion of respiratory tract mucus (LPS-induced, mucus in BALF by UEA-1 lectin assay); assay type: in vivo; settings: mean ± standard deviation; for Mucus level of BALF: LPS 100 µg intratracheal, 6 samples; for Percent inhibition (% ): mucus level of BALF vs control and normal
Experimental: The procedure of the test was based on a partially modified method of Tesfaigzi et al. (Am. J. Physiol. Lung Cell Mol. Physiol., Vol. 279, p. L1210-L1217, 2000). The specific procedure will be described as follows. To each of the 7-week male Brown Norway rats, LPS (derived from E. coli., strain 0111: B4) 100 µg was intratracheally administered under anesthetic with ether, thereby inducing inflammation. Two days after administration of LPS, the rat was slaughtered under anesthetic with pentobarbital, and the extirpated respiratory tract was washed with PBS containing 5mM EDTA and 5mM dithiothreitol (3 mL). The amount of mucus contained in the collected BALF was determined through a lectin assay method employing UEA-1. Each test drug was suspended in a 0.5% HPMC, and the suspension was orally administered one hour before administration of LPS and on the following day. In Table 2, numerical data are represented by mean value ± standard deviation (each group: 6 samples). Percent inhibition (%) was calculated in the same way as in Test Example 1.

Molecule `COc1ccc(-c2nc3cc(-n4cncn4)ccc3[nH]2)cc1OCC(C)C` [Compound 6] has an inhibition at 1 µM [1] of 15.4%, an inhibition at 3 µM [1] of 51.4% and an inhibition at 10 µM [1] of 102%.
Molecule `COc1ccc(-c2nc3cc(-n4cncn4)ccc3[nH]2)cc1OCC1CC1` [Compound 1] has an inhibition at 1 µM [1] of 18.1%, an inhibition at 3 µM [1] of 49.4% and an inhibition at 10 µM [1] of 88.6%. The “hyperplasia of goblet cells (effect in words)” value [2] was “inhibitory effect”, the “Mucus level of BALF” value ([3]; 10 mg/kg oral) was 202.4 ± 93.1 ng/mL and the “Percent inhibition (% )” value ([3]; 10 mg/kg oral) was 53.2 ± 25.7%. For the same molecule, the “Mucus level of BALF” value ([3]; 30 mg/kg oral) was 166.6 ± 43.6 ng/mL and the “Percent inhibition (% )” value ([3]; 30 mg/kg oral) was 63.0 ± 12.0%.
`COc1ccc([C@]2(C#N)CC[C@@H](C(=O)O)CC2)cc1OC1CCCC1` [Cilomilast, cilomilast, reference compound] gave an inhibition at 1 µM [1] of -21.4%, an inhibition at 3 µM [1] of -17.2% and an inhibition at 10 µM [1] of -35.2%. The “production of mucin (effect in words)” value [1] was “promoted production of mucin”.
Molecule `COc1ccc(-c2nc3cc(-n4cncn4)ccc3[nH]2)cc1OC1CCCC1` [Compound 2] has an inhibition at 1 µM [1] of 57.1%, an inhibition at 3 µM [1] of 53.3% and an inhibition at 10 µM [1] of 80.8%.
Molecule `COc1ccc(-c2nc3cc(-n4cncn4)ccc3[nH]2)cc1OC` [Compound 3] has an inhibition at 1 µM [1] of 60%, an inhibition at 3 µM [1] of 74.9% and an inhibition at 10 µM [1] of 83.9%.
In the case of `O=C(Nc1c(Cl)cncc1Cl)c1ccc(OC(F)F)c(OCC2CC2)c1` [Roflumilast, roflumilast, reference compound], the inhibition at 1 µM [1] is reported as -37.4%, the inhibition at 3 µM [1] is reported as -28.7% and the inhibition at 10 µM [1] is reported as -16.8%. The “production of mucin (effect in words)” value [1] was “promoted production of mucin”.
In the case of `COc1cc(-c2nc3cc(-n4cncn4)ccc3[nH]2)ccc1OCC1CC1` [Compound 4], the inhibition at 1 µM [1] is reported as 22.7% and the inhibition at 3 µM [1] is reported as 48.8%.
